Reference: article PMC10452110, “Indole-3-Acetamido-Polyamines as Antimicrobial Agents and Antibiotic Adjuvants” (Biomolecules, 2023)
Where two headings read alike, the source gives them in different places.

How the values were obtained:
[1] = test system: Pseudomonas aeruginosa (ATCC 27853); assay: Intrinsic antimicrobial activity (MIC) against P. aeruginosa; type: cell-based
Experimental: (§1) The susceptibility of bacterial strains Staphylococcus aureus (ATCC 25923), Escherichia coli (ATCC 25922) and Pseudomonas aeruginosa (ATCC 27853) to antibiotics and compounds was determined using previously reported protocols. Additional antimicrobial evaluation against MRSA (ATCC 43300), Klebsiella pneumoniae (ATCC 700603), Acinetobacter baumannii (ATCC 19606), Candida albicans (ATCC 90028) and Cryptococcus neoformans (ATCC 208821) was undertaken at the Community for Open Antimicrobial Drug Discovery at The University of Queensland (Australia) according to their standard protocols, as reported previously.

[2] = test system: Cryptococcus neoformans (ATCC 208821); assay: Intrinsic antifungal activity (MIC) against C. neoformans; type: cell-based
Experimental: as §1

[3] = test system: Escherichia coli (ATCC 25922); assay: Intrinsic antimicrobial activity (MIC) against E. coli; type: cell-based
Experimental: as §1

[4] = test system: Klebsiella pneumoniae (ATCC 700603); assay: Intrinsic antimicrobial activity (MIC) against K. pneumoniae; type: cell-based
Experimental: as §1

Cytotoxicity assay = type: cell-based; conditions: human; HEK293 cells; mean (n = 2); read-out: Cytotoxicity: concentration of compound at 50% cytotoxicity (IC50)
Experimental: Cytotoxicity assays were conducted using the protocols previously reported.

P. aeruginosa ATCC 27853 = assay: Enhancement of doxycycline action against P. aeruginosa; type: cell-based, Pseudomonas aeruginosa; conditions: doxycycline at 4.5 µM
Experimental: (§2) Antibiotic enhancer concentrations were determined using previously reported protocols.

[5] = test system: Acinetobacter baumannii (ATCC 19606); assay: Intrinsic antimicrobial activity (MIC) against A. baumannii; type: cell-based
Experimental: as §1

MRSA (ATCC 43300) = assay: Intrinsic antimicrobial activity (MIC) against MRSA; type: cell-based; conditions: Staphylococcus aureus, MRSA ATCC 43300; mean (n = 2); read-out: MIC MRSA
Experimental: as §1

[6] = test system: Candida albicans (ATCC 90028); assay: Intrinsic antifungal activity (MIC) against C. albicans; type: cell-based
Experimental: as §1

[7] = test system: Staphylococcus aureus (ATCC 25923); assay: Intrinsic antimicrobial activity (MIC) against S. aureus; type: cell-based
Experimental: as §1

E. coli ATCC 25922 = assay: Enhancement of erythromycin action against E. coli; type: cell-based, Escherichia coli; conditions: erythromycin at 10.9 µM
Experimental: as §2

human red blood cells = assay: Hemolytic assay; type: cell-based; conditions: mean (n = 2)
Experimental: Hemolysis assays were conducted using the protocols previously reported.

[8] = ATCC27853, P. aeruginosa ATCC 27853, mean (n = 3), read-out: MIC P. a
[9] = ATCC208821, C. neoformans ATCC 208821, mean (n = 2), read-out: MIC C. n
[10] = ATCC25922, E. coli ATCC 25922, mean (n = 3), read-out: MIC E. c
[11] = ATCC700603, K. pneumoniae ATCC 700603, mean (n = 2), read-out: MIC K. p
[12] = ATCC19606, A. baumannii ATCC 19606, mean (n = 2), read-out: MIC A. b
[13] = ATCC90028, C. albicans ATCC 90028, mean (n = 2), read-out: MIC C. a
[14] = ATCC25923, S. aureus ATCC 25923, mean (n = 3), read-out: MIC S. a

With `O=C(Cc1c[nH]c2ccccc12)NCCCNCCCCCCCCCCNCCCNC(=O)Cc1c[nH]c2ccccc12.O=C(O)C(F)(F)F.O=C(O)C(F)(F)F` [Compound 14e, N^1,N^10-Bis(3-(2-(1H-indol-3-yl)acetamido)propyl)decane-1,10-diaminium 2,2,2-trifluoroacetate] the MIC ([1]; ATCC27853, read-out: MIC P. a) was 60.3 µM, the MIC ([2]; ATCC208821, read-out: MIC C. n) was ≤ 0.3 µM and the MIC ([3]; ATCC25922, read-out: MIC E. c) was 15.1 µM. The MIC ([4]; ATCC700603, read-out: MIC K. p) was > 39 µM, the IC50 (Cytotoxicity assay) was > 39 µM and the “Dox/P. a fold change (ratio between intrinsic MIC of the test compound and combination MIC)” value (P. aeruginosa ATCC 27853) was 4 fold. For the same compound, the “Dox/P. a: concentration required to restore doxycycline activity (combination MIC)” value (“Dox/P. a: concentration required” below) (P. aeruginosa ATCC 27853) was 15.1 µM, the MIC ([5]; ATCC19606, read-out: MIC A. b) was > 39 µM and the MIC (MRSA (ATCC 43300)) was ≤ 0.3 µM. For the same compound, the MIC ([6]; ATCC90028, read-out: MIC C. a) was ≤ 0.3 µM, the MIC ([7]; ATCC25923, read-out: MIC S. a) was 3.77 µM and the “Eryth/E. c: concentration required to restore erythromycin activity (combination MIC)” value (from here on “Eryth/E. c: concentration required”) (E. coli ATCC 25922) was 15.1 µM. For the same compound, the “Hemolysis: concentration of compound at 10% hemolytic activity (HC10)” value (“Hemolysis … at 10% hemolytic activity (HC10)” for short) (human red blood cells) was ≤0.30 µM.
With `O=C(Cc1c[nH]c2ccccc12)NCCCNCCCCCCCCCCCCNCCCNC(=O)Cc1c[nH]c2ccccc12.O=C(O)C(F)(F)F.O=C(O)C(F)(F)F` [Compound 14f, N^1,N^12-Bis(3-(2-(1H-indol-3-yl)acetamido)propyl)dodecane-1,12-diaminium 2,2,2-trifluoroacetate] the MIC [1, 8] was 58.3 µM, the MIC [2, 9] was ≤ 0.29 µM and the MIC [3, 10] was 29.2 µM. For the same compound, the MIC [4, 11] was > 37 µM, the IC50 (Cytotoxicity assay) was > 37 µM and the “Dox/P. a fold change (ratio between intrinsic MIC of the test compound and combination MIC)” value (P. aeruginosa ATCC 27853) was 4 fold. The “Dox/P. a: concentration required” value (P. aeruginosa ATCC 27853) was 14.6 µM, the MIC [5, 12] was > 37 µM and the MIC (MRSA (ATCC 43300)) was ≤ 0.29 µM. For the same compound, the MIC [6, 13] was ≤ 0.29 µM, the MIC [7, 14] was 3.65 µM and the “Eryth/E. c: concentration required” value (E. coli ATCC 25922) was 14.6 µM. For the same compound, the “Hemolysis … at 10% hemolytic activity (HC10)” value (human red blood cells) was ≤0.29 µM.
For `O=C(Cc1c[nH]c2ccc(Br)cc12)NCCCNCCCCCCNCCCNC(=O)Cc1c[nH]c2ccc(Br)cc12.O=C(O)C(F)(F)F.O=C(O)C(F)(F)F` [Compound 15b, N^1,N^6-Bis(3-(2-(5-bromo-1H-indol-3-yl)acetamido)propyl)hexane-1,6-diaminium 2,2,2-trifluoroacetate], the MIC [1, 8] was 215 µM, the MIC [2, 9] was < 0.2 µM and the MIC [3, 10] was 26.9 µM. For the same compound, the MIC [4, 11] was > 34 µM, the IC50 (Cytotoxicity assay) was > 34 µM and the “Dox/P. a fold change (ratio between intrinsic MIC of the test compound and combination MIC)” value (P. aeruginosa ATCC 27853) was 8 fold. For the same compound, the “Dox/P. a: concentration required” value (P. aeruginosa ATCC 27853) was 26.9 µM, the MIC [5, 12] was > 34 µM and the MIC (MRSA (ATCC 43300)) was < 0.2 µM. The MIC [6, 13] was 2.15 µM, the MIC [7, 14] was 13.4 µM and the “Eryth/E. c: concentration required” value (E. coli ATCC 25922) was 53.7 µM. For the same compound, the “Hemolysis … at 10% hemolytic activity (HC10)” value (human red blood cells) was >34 µM.
In the case of `O=C(Cc1c[nH]c2ccc(Br)cc12)NCCCNCCCCCCCCNCCCNC(=O)Cc1c[nH]c2ccc(Br)cc12.O=C(O)C(F)(F)F.O=C(O)C(F)(F)F` [Compound 15d, N^1,N^8-Bis(3-(2-(5-bromo-1H-indol-3-yl)acetamido)propyl)octane-1,8-diaminium 2,2,2-trifluoroacetate], the MIC [1, 8] is reported as > 209 µM, the MIC [2, 9] is reported as ≤ 0.26 µM and the MIC [3, 10] is reported as 26.1 µM. The MIC [4, 11] was > 33 µM, the IC50 (Cytotoxicity assay) was > 33 µM and the “Dox/P. a fold change (ratio between intrinsic MIC of the test compound and combination MIC)” value (P. aeruginosa ATCC 27853) was > 4 fold. The “Dox/P. a: concentration required” value (P. aeruginosa ATCC 27853) was 52.2 µM, the MIC [5, 12] was > 33 µM and the MIC (MRSA (ATCC 43300)) was ≤ 0.26 µM. The MIC [6, 13] was 2.09 µM, the MIC [7, 14] was 13 µM and the “Eryth/E. c: concentration required” value (E. coli ATCC 25922) was 52.2 µM. For the same compound, the “Hemolysis … at 10% hemolytic activity (HC10)” value (human red blood cells) was 10.1 µM.
In the case of `O=C(Cc1c[nH]c2ccc(Br)cc12)NCCCNCCCCCCCCCCNCCCNC(=O)Cc1c[nH]c2ccc(Br)cc12.O=C(O)C(F)(F)F.O=C(O)C(F)(F)F` [Compound 15e, N^1,N^10-Bis(3-(2-(5-bromo-1H-indol-3-yl)acetamido)propyl)decane-1,10-diaminium 2,2,2-trifluoroacetate], the MIC [1, 8] is reported as 50.7 µM, the MIC [2, 9] is reported as ≤ 0.25 µM and the MIC [3, 10] is reported as 12.7 µM. For the same compound, the MIC [4, 11] was > 32 µM, the IC50 (Cytotoxicity assay) was > 32 µM and the “Dox/P. a fold change (ratio between intrinsic MIC of the test compound and combination MIC)” value (P. aeruginosa ATCC 27853) was 4 fold. For the same compound, the “Dox/P. a: concentration required” value (P. aeruginosa ATCC 27853) was 12.7 µM, the MIC [5, 12] was > 32 µM and the MIC (MRSA (ATCC 43300)) was ≤ 0.25 µM. The MIC [6, 13] was ≤ 0.25 µM, the MIC [7, 14] was 6.33 µM and the “Eryth/E. c: concentration required” value (E. coli ATCC 25922) was 12.7 µM. For the same compound, the “Hemolysis … at 10% hemolytic activity (HC10)” value (human red blood cells) was ≤0.25 µM.
